{"source": "paper PMC7023435", "about": "(Pharmaceutics, 2020)", "key": {"[1]": {"conditions": "in vivo; cited from earlier work", "from_the_text": "For overcoming the absorption barrier, PEs have been developed and studied both for paracellular enhancement by tight junction opening and transcellular e ..."}, "Caco-2 cell monolayers": {"tested_on": "Caco-2 cell monolayers", "experiment": "In vitro insulin permeation and TEER across Caco-2 cell monolayers, PE:insulin in microcontainers or solution", "format": "in vitro ADME", "conditions": "Caco-2, apical to basolateral, 2 h, 37 °C, 75 rpm, hHBSS pH 7.4 with 0.05% BSA, PE:insulin 1:4 w/w, RP-HPLC UV 214 nm, n = 3 passages in triplicate", "experimental": "Cell culturing was done in DMEM supplemented with FBS (10%, v/v), L-glutamine (2 mM), penicillin (100 U/mL), streptomycin (100 µg/mL) and NEAA (1%, v/v) for 21–23 days at 37 °C and 5% CO2 with a final density of 1 × 10^5 cells/cm^2. […] The transepithelial electrical resistance (TEER) of the Caco-2 cell monolayers was measured upon equilibration to room temperature using an Epithelial Volt/Ohm Meter (World Precision Instruments, Sarasota, FL, USA) with Endohm™ chambers. First recording took place in culture medium prior to the permeation study; after which, the monolayers were washed twice with permeation buffer consisting of 10 mM HEPES in HBSS (hHBSS) supplied with BSA (0.05%, w/v), NaHCO3 (0.38%, w/v) and adjusted to pH 7.4. […] Each of the three different studies per PE was carried out in triplicates and across three passages with all studies conducted within eight passages. […] The MC chips were then removed from the Caco-2 cell monolayers, followed by washing twice with hHBSS before TEER was recorded again.\nIn vitro permeation samples without proteolysis were separated on a Kinetex XB-C18 column (100 × 4.6 mm, 5 µm, 100 Å; Phenomenex, Torrance, CA, USA), with two mobile phases of A: 0.1% (v/v) TFA in water and B: 0.1% (v/v) TFA in acetonitrile. […]"}, "[2]": {"tested_on": "porcine intestinal tissue", "experiment": "Ex vivo intestinal permeation study in Franz diffusion cells", "format": "in vitro ADME, pig", "conditions": "Franz diffusion cell, hDMEM, 37 °C, 3 h, MC chip on mucosa, insulin by ELISA, n = 3", "experimental": "The jejunum and ileum were collected from an anaesthetized pig (approx. 40 kg) immediately before it was euthanized. […] Intestinal segments of 10–20 cm were prepared and stored at −20 °C until the day of the permeation study. Prior to the study, a segment was thawed in 10 mM HEPES-buffered DMEM (hDMEM) and longitudinally cut open. Luminal contents were washed away with hDMEM and the muscularis was removed using tweezers before the mucosa was cut into 4 × 4 cm pieces and placed in Franz diffusion cells. Each receptor compartment was filled with 7 mL of hDMEM facing the serosal side of the intestinal tissue. The donor side, facing the mucosa, was filled with 1.5 mL FD70 solution (100 µg/mL) in hDMEM to imitate the inclusion of a pathogen. Permeation was initiated by placing a chip of loaded MCs directly on top with the openings facing the mucosa."}, "epithelial integrity": {"tested_on": "epithelial integrity", "conditions": "cited from earlier work", "from_the_text": "The effect of local high PE concentrations on the monolayer under the opening of C10-releasing MCs has previously been visualized by laser-scanning confocal microscopy of cell monolayers cultured on Transwell® filters. Furthermore, we have previously shown that the monolayers, u ..."}, "[3]": {"conditions": "oral dosage form of insulin using C10, high doses required; cited from earlier work"}, "[4]": {"tested_on": "Caco-2 cell monolayers with apical α-chymotrypsin", "experiment": "Combined in vitro permeation and proteolysis", "conditions": "absence of protease inhibition (insulin:SDS:MCC MCs), apical α-chymotrypsin 0.49 U/mL, 37 °C, RP-HPLC", "experimental": "Cell culturing was done in DMEM supplemented with FBS (10%, v/v), L-glutamine (2 mM), penicillin (100 U/mL), streptomycin (100 µg/mL) and NEAA (1%, v/v) for 21–23 days at 37 °C and 5% CO2 with a final density of 1 × 10^5 cells/cm^2. […] The transepithelial electrical resistance (TEER) of the Caco-2 cell monolayers was measured upon equilibration to room temperature using an Epithelial Volt/Ohm Meter (World Precision Instruments, Sarasota, FL, USA) with Endohm™ chambers. […] The MC chips were then removed from the Caco-2 cell monolayers, followed by washing twice with hHBSS before TEER was recorded again.\nThe compatibility of integrating proteolysis in the in vitro permeation setup was then tested by measuring TEER and viability as the metabolic activity of Caco-2 cell monolayers after 2 h of apical exposure to different concentrations of α-chymotrypsin (0, 10, 50 and 100 µg/mL) in hHBSS. Viability was determined after washing the cells with fresh hHBSS followed by the apical addition of 1.5 mL freshly made MTS (240 µg/mL) and PMS solution (2.4 µg/mL) in hHBSS before incubation in dark conditions for 1.5 h with 75 rpm orbital shaking at 37 °C. The absorbance at 492 nm of three 100 µL samples from each well was measured in a 96-well plate using a Multiskan MS 352 Microplate Reader (Labsystems, Helsinki, Finland). […]"}, "[5]": {"biological_target": "α-chymotrypsin from bovine pancreas (Bos taurus, UniProt P00766)", "conditions": "insulin 600 µg/mL, FaSSIF, 37 °C, RP-HPLC", "experimental": "The compatibility of integrating proteolysis in the in vitro permeation setup was then tested by measuring TEER and viability as the metabolic activity of Caco-2 cell monolayers after 2 h of apical exposure to different concentrations of α-chymotrypsin (0, 10, 50 and 100 µg/mL) in hHBSS. Viability was determined after washing the cells with fresh hHBSS followed by the apical addition of 1.5 mL freshly made MTS (240 µg/mL) and PMS solution (2.4 µg/mL) in hHBSS before incubation in dark conditions for 1.5 h with 75 rpm orbital shaking at 37 °C. The absorbance at 492 nm of three 100 µL samples from each well was measured in a 96-well plate using a Multiskan MS 352 Microplate Reader (Labsystems, Helsinki, Finland)."}}}
{"molecule": "semaglutide", "values": [{"measurement": "oral bioavailability", "setting": "[1]", "value": "0.1–1.2%"}]}
{"molecule": "CCCCCCCCCCCCOS(=O)(=O)[O-].[Na+]", "note": "[SDS, sodium dodecyl sulfate]", "values": [{"measurement": "potency as PE based on the insulin permeation rates", "setting": "Caco-2 cell monolayers", "value": "significantly more potent PE when compared to C10 and C12-carnitine"}, {"measurement": "insulin permeation across porcine intestinal tissue", "setting": "[2]", "value": "significantly higher insulin permeation"}, {"measurement": "barrier integrity after exposure", "setting": "epithelial integrity; 2 h exposure to 0.40 mM SDS", "value": "irreversible deterioration of barrier integrity"}, {"measurement": "SDS concentration resulting in immediate loss of epithelial integrity", "setting": "epithelial integrity; concentrations as low as", "value": 0.40, "unit": "mM"}]}
{"molecule": "insulin (human recombinant)", "values": [{"measurement": "glycemic control", "setting": "[3]", "value": "glycemic control similar to subcutaneously administered insulin"}, {"measurement": "insulin digested on the apical side after 2 h", "setting": "[4]", "value": "Almost all"}, {"measurement": "native insulin remaining", "setting": "[5]; after 45–60 min, without STI, α-chymotrypsin 0.49 U/mL", "value": "approximately 20%"}, {"measurement": "native insulin degraded after 2 h", "setting": "[5]; α-chymotrypsin 10 µg/mL (0.49 U/mL), 12 µg/mL STI, n = 3", "value": "more than 90%"}]}
{"molecule": "CCCCCCCCCC(=O)[O-].[Na+]", "note": "[C10, n-Capric acid sodium salt]", "values": [{"measurement": "potency as PE based on the insulin permeation rates", "setting": "Caco-2 cell monolayers", "value": "equal in vitro potency to C12-carnitine"}, {"measurement": "concentration inducing in vitro permeation", "setting": "epithelial integrity; in the order", "value": "~10", "unit": "mM"}]}
